Reference: ChEMBL document CHEMBL3792287, “Antiplasmodial phloroglucinol derivatives from Syncarpia glomulifera” (Bioorg Med Chem, 2016)

How the values were obtained:
[1] = tested on: Plasmodium falciparum; experiment: Antiplasmodial activity against Plasmodium falciparum Dd2 incubated under low oxygen conditions after 72 hrs by SYBR green assay; assay type: functional, organism-based; details: Dd2, 72 h
[2] = tested on: HEK293; experiment: Cytotoxicity against HEK293 cells assessed as reduction in cell viability up to 3.125 uM after 24 hrs by resazurin dye based fluorescence assay; details: human, hek293, 24 h
[3] = Cytotoxicity against HEK293 cells assessed as reduction in cell viability at 50 uM after 24 hrs by resazurin dye based fluorescence assay; details: human, read-out: INH
[4] = tested on: HEK293; experiment: Cytotoxicity against HEK293 cells assessed as reduction in cell viability at 100 uM after 24 hrs by resazurin dye based fluorescence assay; details: human, hek293, 24 h

Row | SMILES | IC50 [1] [µM] | Activity [2] | cytotoxicity at 24 h, 50 µM [3] [%] | Activity [4]
1 | CCCCCC(=O)c1c(O)cc(O)cc1O | > 80 | – | – | –
2 | CCCCCC(=O)c1c(O)cc(O)c2c1OC1=C(C(=O)C(C)(C)C(=O)C1(C)C)C2CC(C)C (racemic) | 0.1 | Non-toxic | 58 | –
3 | C[C@@H]1CC[C@H]2[C@@H](C)C(=O)O[C@@H]3O[C@@]4(C)CC[C@@H]1[C@]32OO4 [ARTEMISININ] | 0.0062 | – | – | –
4 | CC(C)=CCCC1=CCC2(C(=O)C(C)(C)C(=O)C(C)(C)C2=O)C(CC(C)C)C1 (racemic) | 3.81 | – | – | Non-toxic
5 | C=C(C)[C@@H]1CC[C@]2(C(=O)O)CC[C@]3(C)[C@H](CC[C@@H]4[C@@]5(C)CC[C@H](O)C(C)(C)[C@@H]5CC[C@]43C)[C@@H]12 [BETULINIC ACID] | 3.44 | – | – | –
6 | CC(=O)O[C@H]1CC[C@]2(C)[C@H]3CC=C4[C@@H]5[C@@H](C)[C@H](C)CC[C@]5(C(=O)O)CC[C@@]4(C)[C@]3(C)CC[C@H]2C1(C)C [O-ACETYLURSOLIC ACID] | 12.1 | – | – | –
7 | C[C@H]1[C@H](C)CC[C@]2(C(=O)O)CC[C@]3(C)C(=CC[C@@H]4[C@@]5(C)CC[C@H](O)C(C)(C)[C@@H]5CC[C@]43C)[C@H]12 [URSOLIC ACID] | > 40 | – | – | –
